# Experimental data reported in US9730446B2, “Herbicidal compositions comprising 4-amino-3-chloro-6-(4-chloro-2-fluoro-3-methoxyphenyl)pyridine-2-carboxylic acid or a derivative thereof and propyzamide” (Dow AgroSciences LLC, priority 2013, dated 2017).
# Assays:
# Format in all cases: in vivo
# [1] = test system: POAAN Poa annua (annual bluegrass); experiment: Field trial, visual weed control in winter oilseed rape
# Procedure: (§1) Multiple small plot research experiments were conducted to evaluate efficacy and tolerance of winter oilseed rape to compositions described herein. Typical small plots (2-4×4-10 meters (m)) were used in growers' fields under natural conditions with normal commercial cultural practices. Backpack sprayers were used to apply all treatments based on unit area. The methyl ester of formula (I) and propyzamide were tested alone and in combination at varying rates. […] Crop stage was at Growth Stage 39-50. Visual crop injury ratings were collected 32, 49, and 74 days after treatment. […] The reported values are means. […] The following abbreviations are used in Tables 2-4: • GERSS Geranium sp. (cranesbill) • POAAN Poa annua (annual bluegrass) • VERSS Veronica sp.
# [2] = test system: GERSS Geranium sp. (cranesbill); experiment: as above
# Procedure: as §1
# [3] = test system: VERSS Veronica sp. (speedwell); experiment: as above
# Procedure: as §1
# [4] = test system: EPHHL Euphorbia heterophylla L. (wild poinsettia); experiment: Postemergent herbicidal activity, greenhouse; conditions: foliar, 14 d
# Procedure: (§2) Evaluation of Postemergent Herbicidal Activity. Seeds or nutlets of the desired test plant species were planted in Sun Gro Metro-Mix® 360 planting mixture, which typically has a pH of 6.0 to 6.8 and an organic matter content of about 30 percent, in plastic pots with a surface area of 64 square centimeters (cm^2). […] The plants were grown for 7-21 days (d) in a greenhouse with an approximate 15 hour (h) photoperiod which was maintained at about 23-29° C. during the day and 22-28° C. during the night. Nutrients and water were added on a regular basis and supplemental lighting was provided with overhead metal halide 1000-Watt lamps as necessary. The plants were employed for testing when they reached the first or second true leaf stage.
# (§3) A weighed amount, determined by the highest rate to be tested, of each test compound was placed in a 25 milliliter (mL) glass vial and was dissolved in 4 mL of a 97:3 volume per volume (v/v) mixture of acetone and dimethyl sulfoxide (DMSO) to obtain concentrated stock solutions. […] The concentrated stock solutions obtained were diluted with 20 mL of an aqueous mixture containing acetone, water, isopropyl alcohol, DMSO, Atplus 411F crop oil concentrate, and Triton® X-155 surfactant in a 48.5:39:10:1.5:1.0:0.02 v/v ratio to obtain spray solutions containing the highest application rates. Additional application rates were obtained by serial dilution of 12 mL of the high rate solution into a solution containing 2 mL of a 97:3 v/v mixture of acetone and DMSO and 10 mL of an aqueous mixture containing acetone, water, isopropyl alcohol, DMSO, Atplus 411F crop oil concentrate, and Triton X-155 surfactant in a 48.5:39:10:1.5:1.0:0.02 v/v ratio to obtain 1/2×, 1/4×, 1/8× and 1/16× rates of the high rate. Compound requirements are based upon a 12 mL application volume at a rate of 187 liters per hectare (L/ha). Formulated compounds were applied to the plant material with an overhead Mandel track sprayer equipped with 8002E nozzles calibrated to deliver 187 L/ha over an application area of 0.503 square meters (m^2) at a spray height of 18 inches (43 cm) above the average plant canopy height. Control plants were sprayed in the same manner with the solvent blank.
# (§4) Treatments consisted of the methyl ester of 4-amino-3-chloro-6-(4-chloro-2-fluoro-3-methoxyphenyl)pyridine-2-carboxylic acid (Cmpd 1) as technical grade material and propyzamide (Kerb 50 W) alone and in combination.
# (§5) The treated plants and control plants were placed in a greenhouse as described above and watered by subirrigation to prevent wash-off of the test compounds. After 14 d, the condition of the test plants as compared with that of the untreated plants was determined visually and scored on a scale of 0 to 100 percent where 0 corresponds to no injury and 100 corresponds to complete kill.
# (§6) Colby's equation was used to determine the herbicidal effects expected from the mixtures (Colby, S. R. Calculation of the synergistic and antagonistic response of herbicide combinations. Weeds 1967, 15, 20-22). More specifically, the following equation was used to calculate the expected activity of mixtures containing two active ingredients, A and B: Expected=A+B−(A×B/100) A=observed efficacy of active ingredient A at the same concentration as used in the mixture; B=observed efficacy of active ingredient B at the same concentration as used in the mixture.
# [5] = test system: CIRAR Cirsium arvense (L.) Scop. (Canada thistle); experiment: Postemergent herbicidal activity, greenhouse; conditions: foliar, 14 d
# Procedure: as §2, §3, §4, §5, §6
# [6] = test system: BRSNW Brassica napus (winter oilseed rape); experiment: Postemergent herbicidal activity, greenhouse; conditions: foliar, 14 d
# Procedure: as §2, §3, §4, §5, §6
# [7] = test system: CHEAL Chenopodium album L. (common lambsquarters); experiment: Postemergent herbicidal activity, greenhouse; conditions: foliar, 14 d
# Procedure: as §2, §3, §4, §5, §6
# [8] = test system: IPOHE Ipomoea hederacea (L.) Jacq. (ivyleaf morningglory); experiment: Postemergent herbicidal activity, greenhouse; conditions: foliar, 14 d
# Procedure: as §2, §3, §4, §5, §6
# [9] = test system: STEME Stellaria media (L.) Vill. (common chickweed); experiment: Postemergent herbicidal activity, greenhouse; conditions: foliar, 14 d
# Procedure: as §2, §3, §4, §5, §6
# [10] = test system: GLXMA Glycine max (volunteer soybean); experiment: Postemergent herbicidal activity, greenhouse; conditions: foliar, 14 d
# Procedure: as §2, §3, §4, §5, §6
# [11] = test system: AMARE Amaranthus retroflexus L. (redroot pigweed); experiment: Postemergent herbicidal activity, greenhouse; conditions: foliar, 14 d
# Procedure: as §2, §3, §4, §5, §6
# [12] = test system: ABUTH Abutilon theophrasti Medik. (velvetleaf); experiment: Postemergent herbicidal activity, greenhouse; conditions: foliar, 14 d
# Procedure: as §2, §3, §4, §5, §6
# [13] = test system: POLCO Polygonum convolvulus L. (wild buckwheat); experiment: Postemergent herbicidal activity, greenhouse; conditions: foliar, 14 d
# Procedure: as §2, §3, §4, §5, §6
# [14] = test system: SETFA Setaria faberi Herrm. (giant foxtail); experiment: Postemergent herbicidal activity, greenhouse; conditions: foliar, 14 d
# Procedure: as §2, §3, §4, §5, §6
# [15] = test system: VIOTR Viola tricolor L. (wild violet); experiment: Postemergent herbicidal activity, greenhouse; conditions: foliar, 14 d
# Procedure: as §2, §3, §4, §5, §6
# winter oilseed rape = experiment: Field trial, visual crop injury ratings; conditions: varying rates, crop Growth Stage 39-50, 32, 49, and 74 days after treatment, in each case
# Procedure: Multiple small plot research experiments were conducted to evaluate efficacy and tolerance of winter oilseed rape to compositions described herein. Typical small plots (2-4×4-10 meters (m)) were used in growers' fields under natural conditions with normal commercial cultural practices. Backpack sprayers were used to apply all treatments based on unit area. The methyl ester of formula (I) and propyzamide were tested alone and in combination at varying rates. Application water volume was 150 L/ha. Crop stage was at Growth Stage 39-50. Visual crop injury ratings were collected 32, 49, and 74 days after treatment. […] The reported values are means.
# [16] = Propyzamide 250 g ai/ha, 32 DAAA
# [17] = Propyzamide 250 g ai/ha, 58 DAAA
# [18] = Propyzamide 250 g ai/ha, 80 DAAA
# [19] = Propyzamide 500 g ai/ha, 32 DAAA
# [20] = Propyzamide 500 g ai/ha, 58 DAAA
# [21] = Propyzamide 500 g ai/ha, 80 DAAA
# [22] = Propyzamide 750 g ai/ha, 32 DAAA
# [23] = Propyzamide 750 g ai/ha, 58 DAAA
# [24] = Propyzamide 750 g ai/ha, 80 DAAA
structure (smiles),measurement,setting,value
"C#CC(C)(C)NC(=O)c1cc(Cl)cc(Cl)c1 [Propyzamide, 3,5-dichloro-N-(1,1-dimethylpropynyl)benzamide]","% control rated visually, ob (observed)",[1]; [16],12.5%
same,"% control rated visually, ob (observed)",[1]; [17],12.5%
same,"% control rated visually, ob (observed)",[1]; [18],45.0%
same,"% control rated visually, ob (observed)",[1]; [19],15.0%
same,"% control rated visually, ob (observed)",[1]; [20],67.5%
same,"% control rated visually, ob (observed)",[1]; [21],95.0%
same,"% control rated visually, ob (observed)",[1]; [22],37.5%
same,"% control rated visually, ob (observed)",[1]; [23],92.5%
same,"% control rated visually, ob (observed)",[1]; [24],98.3%
same,"% control rated visually, ob (observed)",[2]; [16],5.0%
same,"% control rated visually, ob (observed)",[2]; [17],17.5%
same,"% control rated visually, ob (observed)",[2]; [18],22.5%
same,"% control rated visually, ob (observed)",[2]; [19],20.0%
same,"% control rated visually, ob (observed)",[2]; [20],35.0%
same,"% control rated visually, ob (observed)",[2]; [21],28.8%
same,"% control rated visually, ob (observed)",[2]; [22],18.8%
same,"% control rated visually, ob (observed)",[2]; [23],25.0%
same,"% control rated visually, ob (observed)",[2]; [24],33.8%
same,"% control rated visually, ob (observed)",[3]; [16],43.8%
same,"% control rated visually, ob (observed)",[3]; [18],100.0%
same,"% control rated visually, ob (observed)",[3]; [19],60.0%
same,"% control rated visually, ob (observed)",[3]; [21],100.0%
same,"% control rated visually, ob (observed)",[3]; [22],54.3%
same,"% control rated visually, ob (observed)",[3]; [24],100.0%
same,"% control rated visually, ob (observed)",[4]; Propyzamide 285 g ai/ha,0%
same,"% control rated visually, ob (observed)",[4]; Propyzamide 570 g ai/ha,0%
same,"% control rated visually, ob (observed)",[5]; Propyzamide 285 g ai/ha,0%
same,"% control rated visually, ob (observed)",[5]; Propyzamide 570 g ai/ha,0%
same,"% control rated visually, ob (observed)",[6]; Propyzamide 285 g ai/ha,5%
same,"% control rated visually, ob (observed)",[6]; Propyzamide 570 g ai/ha,20%
same,"% control rated visually, ob (observed)",[7]; Propyzamide 285 g ai/ha,0%
same,"% control rated visually, ob (observed)",[7]; Propyzamide 570 g ai/ha,0%
same,"% control rated visually, ob (observed)",[8]; Propyzamide 285 g ai/ha,10%
same,"% control rated visually, ob (observed)",[8]; Propyzamide 570 g ai/ha,17%
same,"% control rated visually, ob (observed)",[9]; Propyzamide 285 g ai/ha,7%
same,"% control rated visually, ob (observed)",[9]; Propyzamide 570 g ai/ha,75%
same,"% control rated visually, ob (observed)",[10]; Propyzamide 285 g ai/ha,10%
same,"% control rated visually, ob (observed)",[10]; Propyzamide 570 g ai/ha,15%
same,"% control rated visually, ob (observed)",[11]; Propyzamide 285 g ai/ha,0%
same,"% control rated visually, ob (observed)",[11]; Propyzamide 570 g ai/ha,10%
same,"% control rated visually, ob (observed)",[12]; Propyzamide 285 g ai/ha,5%
same,"% control rated visually, ob (observed)",[12]; Propyzamide 570 g ai/ha,0%
same,"% control rated visually, ob (observed)",[13]; Propyzamide 285 g ai/ha,5%
same,"% control rated visually, ob (observed)",[13]; Propyzamide 570 g ai/ha,15%
same,"% control rated visually, ob (observed)",[14]; Propyzamide 285 g ai/ha,0%
same,"% control rated visually, ob (observed)",[14]; Propyzamide 570 g ai/ha,0%
same,"% control rated visually, ob (observed)",[15]; Propyzamide 285 g ai/ha,0%
same,"% control rated visually, ob (observed)",[15]; Propyzamide 570 g ai/ha,0%
same,Visual crop injury rating,winter oilseed rape,0 % injury
